{"source": "ChEMBL document CHEMBL5360581", "about": "“Discovery of a novel dual functional phenylpyrazole-styryl hybrid that induces apoptotic and autophagic cell death in bladder cancer cells” (Eur J Med Chem, 2023)", "key": {"EJ-28 [1]": {"test_system": "EJ-28", "assay": "Induction of autophagy in human EJ-28 cells assessed as upregulation of Atg12 expression at 5 to 12.5 uM incubated for 24 to 72 hrs by Western blot analysis", "format": "functional, cell-based", "conditions": "dose 5-12.5 µM, time 24-72 hrs"}, "EJ-28 [2]": {"test_system": "EJ-28", "assay": "Anticancer activity against human EJ-28 cells cultured as 3D spheroids at 2.5 to 20 uM measured upto 5 days by PI/Hoechst 33342 staining based fluorescence microscopic analysis", "format": "functional, cell-based", "conditions": "dose 2.5-20 µM, time <= 5.0 day"}, "A549": {"test_system": "A549", "assay": "Antiproliferative activity against human A549 cells assessed as reduction in cell viability at 20 uM measured for 72 hrs by MTT assay", "format": "functional, cell-based"}, "EJ-28 [3]": {"test_system": "EJ-28", "assay": "Induction of autophagy in human EJ-28 cells assessed as upregulation of Atg16L1 expression at 5 to 12.5 uM incubated for 24 to 72 hrs by Western blot analysis", "format": "functional, cell-based", "conditions": "dose 5-12.5 µM, time 24-72 hrs"}, "[4]": {"assay": "Cytotoxicity against human NHDF cells assessed inhibition of cell growth incubated for 72 hrs by MTT assay", "format": "toxicity, cell-based"}, "[5]": {"assay": "Selectivity index, ratio of IC50 for cytotoxicity against human NHDF cells to IC50 for cytotoxicity against human MCF7 cells", "format": "toxicity, cell-based", "conditions": "NHDF cells and MCF7 cells, read-out: Ratio IC50"}, "EJ-28 [6]": {"test_system": "EJ-28", "assay": "Induction of apoptosis in human EJ-28 cells assessed as upregulation of cleaved caspases-8 expression by Western blotting analysis", "format": "functional, cell-based", "conditions": "time 24-72 hrs"}, "EJ-28 [7]": {"test_system": "EJ-28", "assay": "Induction of autophagy in human EJ-28 cells assessed as upregulation of LC3B-I expression at 5 to 12.5 uM incubated for 24 to 72 hrs by Western blot analysis", "format": "functional, cell-based", "conditions": "dose 5-12.5 µM, time 24-72 hrs"}, "SV-HUC-1": {"test_system": "SV-HUC-1", "assay": "Induction of morphological changes in human SV-HUC-1 cells at 7.5 uM incubated for 24 to 72 hrs by microscopic analysis", "format": "functional, cell-based", "conditions": "time 24-72 hrs"}, "EJ-28 [8]": {"test_system": "EJ-28", "assay": "Induction of ROS generation in human EJ-28 cells at 1.25 to 10 uM incubated for 48 hrs by DCFDA staining based flow cytometry analysis", "format": "functional, cell-based", "conditions": "dose 1.25-10 µM"}, "EJ-28 [9]": {"test_system": "EJ-28", "assay": "Antimigratory activity in human EJ-28 cells at 1.25 to 10 uM measured for 24 hrs by imaging analysis", "format": "functional, cell-based", "conditions": "dose 1.25-10 µM"}, "EJ-28 [10]": {"test_system": "EJ-28", "assay": "Induction of apoptosis in human EJ-28 cells assessed as upregulation of PARP expression incubated for 24 hrs by Western blotting analysis", "format": "functional, cell-based"}, "EJ-28 [11]": {"test_system": "EJ-28", "assay": "Induction of apoptosis in human EJ-28 cells assessed as upregulation of cleaved caspases-9 expression by Western blotting analysis", "format": "functional, cell-based", "conditions": "time 24-72 hrs"}, "EJ-28 [12]": {"test_system": "EJ-28", "assay": "Induction of cell cycle arrest in human EJ-28 cells assessed as accumulation of cells at G2/M phase at 5 uM incubated for 48 hrs by propidium iodide staining based flow cytometry (reference value: 20%)", "format": "functional"}, "EJ-28 [13]": {"test_system": "EJ-28", "assay": "Inhibition of colony formation in human EJ-28 cells at 1.25 uM incubated for 10 days by crystal violet staining based assay", "format": "functional, cell-based", "conditions": "time 10.0 day"}, "EJ-28 [14]": {"test_system": "EJ-28", "assay": "Anticancer activity against human EJ-28 cells cultured as 3D spheroids assessed as decrease in spheroid volume at 5 to 20 uM measured upto 5 days by fluorescence microscopic analysis", "format": "functional, cell-based", "conditions": "dose 5-20 µM, time <= 5.0 day"}, "MCF7 [15]": {"test_system": "MCF7", "assay": "Cytotoxicity against human MCF7 cells assessed inhibition of cell growth incubated for 72 hrs by MTT assay", "format": "functional, cell-based", "conditions": "MCF7, 72 h"}, "[16]": {"assay": "Cytotoxicity against human SV-HUC-1 cells assessed as reduction in cell viability at 7.5 uM incubated for 72 hrs by MTT assay", "format": "toxicity, cell-based", "conditions": "sv-huc-1, 72 h"}, "EJ-28 [17]": {"test_system": "EJ-28", "assay": "Induction of apoptosis in human EJ-28 cells assessed as downregulation of procaspase-7 expression incubated for 24 to 72 hrs by Western blotting analysis", "format": "functional, cell-based", "conditions": "time 24-72 hrs"}, "HT-1080": {"test_system": "HT-1080", "assay": "Cytotoxicity against human HT-1080 cells assessed inhibition of cell growth incubated for 72 hrs by MTT assay", "format": "functional, cell-based", "conditions": "HT-1080, 72 h"}, "HEK293": {"test_system": "HEK293", "assay": "Cytotoxicity against HEK293 cells expressing EGFR assessed as inhibition of cell growth incubated for 24 to 72 hrs", "format": "toxicity, cell-based", "conditions": "human, time 24-72 hrs"}, "[18]": {"assay": "Toxicity in Zebrafish embryo assessed as mild bradycardia at 12.5 to 25 uM administered for 4 hrs post fertilization and measured after 3 days post fertilization", "set-up": "species or system Danio rerio", "conditions": "in vivo, 72 h, dose 12.5-25 µM, time 3 day"}, "MCF7 [19]": {"test_system": "MCF7", "assay": "Antiproliferative activity against human MCF7 cells assessed as reduction in cell viability at 20 uM measured for 72 hrs by MTT assay", "format": "functional, cell-based"}, "SW-620": {"test_system": "SW-620", "assay": "Cytotoxicity against human SW620 cells assessed inhibition of cell growth incubated for 72 hrs by MTT assay", "format": "functional, cell-based", "conditions": "SW-620, 72 h"}, "EJ-28 [20]": {"test_system": "EJ-28", "assay": "Induction of autophagy in human EJ-28 cells assessed as upregulation of LC3B-2 expression at 5 to 12.5 uM incubated for 24 to 72 hrs by Western blot analysis", "format": "functional, cell-based", "conditions": "dose 5-12.5 µM, time 24-72 hrs"}, "EJ-28 [21]": {"test_system": "EJ-28", "assay": "Induction of apoptosis in human EJ-28 cells assessed as upregulation of cleaved bid expression incubated for 24 hrs by Western blotting analysis", "format": "functional, cell-based"}, "EJ-28 [22]": {"test_system": "EJ-28", "assay": "Induction of autophagy in human EJ-28 cells assessed as upregulation of Beclin-1 expression at 5 to 12.5 uM incubated for 24 to 72 hrs by Western blot analysis", "format": "functional, cell-based", "conditions": "dose 5-12.5 µM, time 24-72 hrs"}, "EJ-28 [23]": {"test_system": "EJ-28", "assay": "Induction of autophagy in human EJ-28 cells assessed as increase in green fluorescence intensity at 5 to 12.5 uM incubated for 36 to 48 hrs by flow cytometry analysis", "format": "functional, cell-based", "conditions": "dose 5-12.5 µM, time 36-48 hrs"}, "[24]": {"assay": "Selectivity index, ratio of IC50 for cytotoxicity against human NHDF cells to IC50 for cytotoxicity against human SW620 cells"}, "EJ-28 [25]": {"test_system": "EJ-28", "assay": "Anticancer activity against human EJ-28 cells cultured as 3D spheroids assessed as decrease in spheroid size at 5 to 20 uM measured upto 5 days by fluorescence microscopic analysis", "format": "functional, cell-based", "conditions": "dose 5-20 µM, time <= 5.0 day"}, "EJ-28 [26]": {"test_system": "EJ-28", "assay": "Induction of autophagy in human EJ-28 cells assessed as upregulation of AKT expression at 5 to 12.5 uM incubated for 48 to 72 hrs by Western blot analysis", "format": "functional, cell-based", "conditions": "dose 5-12.5 µM, time 48-72 hrs"}, "EJ-28 [27]": {"test_system": "EJ-28", "assay": "Induction of cell cycle arrest in human EJ-28 cells assessed as accumulation of cells at G2/M phase at 1.25 uM incubated for 48 hrs by propidium iodide staining based flow cytometry (reference value: 20%)", "format": "functional"}, "EJ-28 [28]": {"test_system": "EJ-28", "assay": "Induction of autophagy in human EJ-28 cells assessed as upregulation of Atg5-Atg12 expression at 5 to 12.5 uM incubated for 24 to 72 hrs by Western blot analysis", "format": "functional, cell-based", "conditions": "dose 5-12.5 µM, time 24-72 hrs"}, "[29]": {"assay": "Toxicity in Zebrafish embryo assessed as lack of pigmentation at 12.5 uM administered for 4 hrs post fertilization and measured after 3 days post fertilization", "set-up": "species or system Danio rerio", "conditions": "in vivo, 72 h, time 3 day"}, "EJ-28 [30]": {"test_system": "EJ-28", "assay": "Induction of autophagy in human EJ-28 cells assessed as autophagic flux at 5 to 12.5 uM incubated for 36 to 48 hrs by flow cytometry analysis", "format": "functional, cell-based", "conditions": "dose 5-12.5 µM, time 36-48 hrs"}, "[31]": {"assay": "Toxicity in Zebrafish embryo assessed as mortality at 12.5 to 50 uM administered for 4 hrs post fertilization and measured after 72 hours post fertilization", "set-up": "species or system Danio rerio", "conditions": "in vivo, dose 12.5-50 µM"}, "EJ-28 [32]": {"test_system": "EJ-28", "assay": "Induction of autophagy in human EJ-28 cells assessed as upregulation of AKT expression at 5 to 12.5 uM incubated for 24 hrs by Western blot analysis", "format": "functional, cell-based", "conditions": "dose 5-12.5 µM"}, "[33]": {"assay": "Toxicity in Zebrafish embryo assessed as delay in hatching at 12.5 to 50 uM administered for 4 hrs post fertilization and measured after 72 hours post fertilization", "set-up": "species or system Danio rerio", "conditions": "in vivo, dose 12.5-50 µM"}}, "note": "Activity calls are given as the source filed them. No cut-off for these calls is given here.", "data": [{"compound": "O=[N+]([O-])c1cccc(/C=C/c2cc(-c3cc(Cl)ccc3O)n(-c3ccccc3)n2)c1", "values": [{"measurement": "Activity", "setting": "EJ-28 [1]", "value": "Active"}, {"measurement": "Activity", "setting": "EJ-28 [2]", "value": "Active"}, {"measurement": "Activity", "setting": "A549", "value": "Active"}, {"measurement": "Activity", "setting": "EJ-28 [3]", "value": "inactive"}, {"measurement": "IC50 at 72 h", "setting": "[4]", "value": 39.7, "unit": "µM"}, {"measurement": "selectivity ratio", "setting": "[5]", "value": 2.6}, {"measurement": "Activity", "setting": "EJ-28 [6]", "value": "Dose-Dependent Effect"}, {"measurement": "Activity", "setting": "EJ-28 [7]", "value": "Active"}, {"measurement": "Activity", "setting": "SV-HUC-1", "value": "inactive"}, {"measurement": "Activity", "setting": "EJ-28 [8]", "value": "inactive"}, {"measurement": "inhibition", "setting": "EJ-28 [9]", "value": "Active"}, {"measurement": "Activity", "setting": "EJ-28 [10]", "value": "Active"}, {"measurement": "Activity", "setting": "EJ-28 [11]", "value": "Dose-Dependent Effect"}, {"measurement": "Activity", "setting": "EJ-28 [12]", "value": 19, "unit": "%"}, {"measurement": "inhibition", "setting": "EJ-28 [13]", "value": "inactive"}, {"measurement": "Activity", "setting": "EJ-28 [14]", "value": "Active"}, {"measurement": "IC50", "setting": "MCF7 [15]", "value": 8.8, "unit": "µM"}, {"measurement": "Activity", "setting": "[16]", "value": "Non-Toxic"}, {"measurement": "Activity", "setting": "EJ-28 [17]", "value": "Active"}, {"measurement": "IC50", "setting": "HT-1080", "value": 13, "unit": "µM"}, {"measurement": "Activity", "setting": "HEK293", "value": "Non-Toxic"}, {"measurement": "Activity", "setting": "[18]", "value": "Non-Toxic"}, {"measurement": "Activity", "setting": "MCF7 [19]", "value": "Active"}, {"measurement": "IC50", "setting": "SW-620", "value": 10, "unit": "µM"}, {"measurement": "Activity", "setting": "EJ-28 [20]", "value": "Active"}, {"measurement": "Activity", "setting": "EJ-28 [21]", "value": "Active"}, {"measurement": "Activity", "setting": "EJ-28 [22]", "value": "inactive"}, {"measurement": "Activity", "setting": "EJ-28 [23]", "value": "inactive"}, {"measurement": "Ratio IC50", "setting": "[24]", "value": 2.6}, {"measurement": "Activity", "setting": "EJ-28 [25]", "value": "Active"}, {"measurement": "Activity", "setting": "EJ-28 [26]", "value": "Active"}, {"measurement": "Activity", "setting": "EJ-28 [27]", "value": 18, "unit": "%"}, {"measurement": "Activity", "setting": "EJ-28 [28]", "value": "Active"}, {"measurement": "Activity", "setting": "[29]", "value": "Non-Toxic"}, {"measurement": "Activity", "setting": "EJ-28 [30]", "value": "Active"}, {"measurement": "Activity", "setting": "[31]", "value": "Non-Toxic"}, {"measurement": "Activity", "setting": "EJ-28 [32]", "value": "Active"}, {"measurement": "Activity", "setting": "[33]", "value": "Non-Toxic"}]}]}
